We go through 5 molecules from patent US8691840B2, “N-biarylamides” (Bayer Intellectual Property GmbH, priority 2003, dated 2014).

The experiment addresses α7 nAChR (Rattus norvegicus (Rat), UniProt Q05941). The experiment in a line: [3H]-methyllycaconitine binding assay, rat brain membranes. The conditions noted are these: inhibition of [3H]-methyllycaconitine binding to rat brain membranes; Ki=IC50/(1+L/KD). As to the method:
1. Determination of the Affinity of Test Substances for α7 nAChR by Inhibition of [^3H]-methyllycaconitine Binding to Rat Brain Membranes
The [^3H]-methyllycaconitine binding assay is a modification of the method described by Davies et al. (Neuropharmacol. 1999, 38, 679-690).
Rat brain tissue (hippocampus or whole brain) is homogenized in homogenization buffer (10% w/v) (0.32 M sucrose, 1 mM EDTA, 0.1 mM phenylmethylsulfonyl fluoride (PMSF), 0.01% (w/v) NaN3, pH 7.4, 4° C.) at 600 rpm in a glass homogenizer. The homogenate is centrifuged (1000×g, 4° C., 10 min) and the supernatant is removed. The pellet is resuspended (20% w/v) and the suspension is centrifuged (1000×g, 4° C., 10 min) The two supernatants are combined and centrifuged (15 000×g, 4° C., 30 min). This pellet is referred to as the P2 fraction.
The P2 pellet is washed twice with binding buffer (50 mM Tris-HCl, 1 mM MgCl2, 120 mM NaCl, 5 mM KCl, 2 mM CaCl2, pH 7.4), and centrifuged (15 000×g, 4° C., 30 min).
The P2 membranes are resuspended in binding buffer and incubated in a volume of 250 μl (amount of membrane protein 0.1-0.5 mg) in the presence of 1-5 nM [^3H]-methyllycaconitine, 0.1% (w/v) BSA (bovine serum albumin) and various concentrations of the test substance at 21° C. for 2.5 h. The non-specific binding is determined by incubation in the presence of 1 μM […]-bungarotoxin or 100 μM nicotine or 10 μM MLA (methyllycaconitine).
The incubation is stopped by adding 4 ml of PBS (20 mM Na2HPO4, 5 mM KH2PO4, 150 mM NaCl, pH 7.4, 4° C.) and filtering through type A/E glass fiber filters (Gelman Sciences) which have previously been placed in 0.3% (v/v) polyethyleneimine (PEI) for 3 h. The filters are washed twice with 4 ml of PBS (4° C.), and the bound radioactivity is determined by scintillation measurement. All the assays are carried out in triplicate. The dissociation constant Ki of the test substance was determined from the IC50 of the compounds (concentration of the test substance at which 50% of the ligand bound to the receptor are displaced), the dissociation constant KD and the concentration L of [^3H]methyllycaconitine (Ki=IC50/(1+L/KD)).

Counter-ions that a name gives are not always drawn.

α7 nAChR, sequence (Q05941 23-502 limits assumed): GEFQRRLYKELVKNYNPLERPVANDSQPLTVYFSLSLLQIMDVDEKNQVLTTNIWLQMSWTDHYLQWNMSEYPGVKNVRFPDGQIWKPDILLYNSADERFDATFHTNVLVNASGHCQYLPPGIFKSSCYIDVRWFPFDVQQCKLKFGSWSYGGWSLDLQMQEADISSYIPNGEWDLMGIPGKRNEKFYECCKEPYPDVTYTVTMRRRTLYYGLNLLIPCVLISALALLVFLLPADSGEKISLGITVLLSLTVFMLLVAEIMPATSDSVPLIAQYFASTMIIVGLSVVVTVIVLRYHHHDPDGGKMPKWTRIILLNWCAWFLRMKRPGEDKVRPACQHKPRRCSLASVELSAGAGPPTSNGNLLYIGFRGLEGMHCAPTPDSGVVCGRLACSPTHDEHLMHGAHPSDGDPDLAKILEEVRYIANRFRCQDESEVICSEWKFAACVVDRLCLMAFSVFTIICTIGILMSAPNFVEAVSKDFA

For the molecule `CS(=O)(=O)Nc1ccc(-c2ccc(NC(=O)[C@H]3CN4CCC3CC4)cc2)cc1` [Example 2, (3R)-N-{4′-[(Methylsulfonyl)amino]biphenyl-4-yl}quinuclidine-3-carboxamide hydrochloride], affinity was put at a Ki of 2 nM.

Regarding `O=C(Nc1ccc(-c2ccc(NS(=O)(=O)c3ccccc3)cc2)cc1)[C@H]1CN2CCC1CC2` [Example 5, (3R)—N-{4′-[(Phenylsulfonyl)amino]biphenyl-4-yl}quinuclidine-3-carboxamide hydrochloride], the Ki – broadly, the dissociation constant of the complex between target and ligand, obtained from inhibition or displacement – is less than 1 nM.

Molecule `NS(=O)(=O)c1ccc(-c2ccc(NC(=O)[C@H]3CN4CCC3CC4)cc2)cc1` [Example 7, (3R)—N-[4′-(Aminosulfonyl)biphenyl-4-yl]quinuclidine-3-carboxamide hydrochloride] came in with a Ki of less than 1 nM.

The molecule `O=C(Nc1ccc(-c2ccc(NC(=O)[C@H]3CN4CCC3CC4)cc2)cc1)NC1CCCC1` [Example 11, (3R)—N-(4′-{[(Cyclopentylamino)carbonyl]amino}biphenyl-4-yl)quinuclidine-3-carboxamide hydrochloride] came in with an inhibition constant Ki of 16 nM.

As for `O=C(Nc1ccc(-c2ccc(NC(=O)[C@H]3CN4CCC3CC4)cc2)cc1)c1cccc(F)c1` [Example 15, (3R)—N-{4′-[(3-Fluorobenzoyl)amino]biphenyl-4-yl}quinuclidine-3-carboxamide hydrochloride], the affinity, expressed as Ki, was 27 nM.
